According to patent US20030059771A1, “Compositions and methods related to the Rig tumor suppressor gene and protein” (THE UNITED STATES OF AMERICA, Department of Health and …, priority 2001, published 2003):

B1: FLAG-Rig: FLAG-tagged recombinant Rig protein expressed from pCDNA-FLAG (protein)
chain: MPEQSNDYRVVVFGAGGVGKSSLVLRFVKGTFRDTYIPTIEDTYRQVISCDKSVCTLQITDTTGSHQFPAMQRLSISKGHAFILVFSVTSKQSLEELGPIYKLIVQIKGSVEDIPVMLVGNKCDETQREVDTREAQAVAQEWKCAFMETSAKMNYNVKELFQELLTLETRRNMSLNIDGKRSGKQKRTDRVKGKCTLM
modifications: left off: small tags and cut ends

Key:
prenylation of GST-Rig = test: In vitro prenylation assay with farnesyl transferase inhibitor (mevalonate prenylation in rabbit reticulocyte lysate); assay type: biochemical, human
Source text: In this Example, experiments performed to determine the in vitro prenylation characteristics of Rig, Ras and Rap are described. Radiolabelled farnesyl pyrophosphate, radiolabelled geranylgeranyl pyrophosphate or radiolabelled mevalonate were alternatively used as substrates in these assays, to determine the prenylation specificity of each GTPase protein. In addition, the ability of a farnesyl transferase inhibitor (FTI; namely, FTI-277, Calbiochem, Catalog No. 344555) to inhibit the prenylation of Rig, Ras and Rap was examined. Purified GST-Rig, GST-H-Ras (G12V) and GST-Rap fusion proteins were used in the in vitro prenylation experiments. The H-Ras(G12V) protein was included in the prenylation assays to serve as a positive control (Clark et al., Proc. Natl. Acad. Sci. USA 90:4887-4891 [1993]). […]
(§1) Each in vitro prenylation reaction contained approximately 1-2 μg alternatively of GST, GST-Rig, GST-H-Ras(G12V) or GST-Rap. […] The gel was soaked in fixing buffer (water with 10% methanol and 10% acetic acid), soaked in autofluor (National Diagnostics, Catalog No. LS315) and analyzed by autoradiography.
(§2) In a second experiment, the sensitivity of mevalonate prenylation of GST-Rig, GST-Ras and GST-Rap, to increasing amounts of farnesyl transferase inhibitor (FTI-277; Calbiochem) was assessed. […] The gel was fixed, soaked in autofluor and analyzed by autoradiography.

[1] = system: prenylation of GST-Ras(G12V); test: as above; assay type: biochemical
Source text: (§3) In this Example, experiments performed to determine the in vitro prenylation characteristics of Rig, Ras and Rap are described. Radiolabelled farnesyl pyrophosphate, radiolabelled geranylgeranyl pyrophosphate or radiolabelled mevalonate were alternatively used as substrates in these assays, to determine the prenylation specificity of each GTPase protein. In addition, the ability of a farnesyl transferase inhibitor (FTI; namely, FTI-277, Calbiochem, Catalog No. 344555) to inhibit the prenylation of Rig, Ras and Rap was examined. Purified GST-Rig, GST-H-Ras (G12V) and GST-Rap fusion proteins were used in the in vitro prenylation experiments. The H-Ras(G12V) protein was included in the prenylation assays to serve as a positive control (Clark et al., Proc. Natl. Acad. Sci. USA 90:4887-4891 [1993]).
(§4) The GST-Rig fusion construct was made by cloning a restriction fragment containing the Rig ORF in frame into the BamHI/EcoRI sites of pGEX-2T (Pharmacia). The vector encoding GST-H-Ras(G12V) was made by subcloning an H-Ras (G12V) BamHI/EcoRI PCR product into the BamHI/EcoRI sites of the pGEX-2T vector. The product was confirmed by sequencing. The GST-Rap fusion construct was produced as described by Clark et al. (Clark et al., J. Biol. Chem., 272:10608-10615 [1997]).
(§5) The resulting plasmids were transformed into competent XL1-Blue Escherichia coli (Stratagene), and the GST-fusion proteins produced by the bacteria were isolated by standard techniques, according to the manufacturer's protocol (Pharmacia), with minor modification (inclusion of 100 μM GTP and the omission of EDTA from the protein collection/purification buffers). Briefly, bacteria were grown to an OD600 of 0.1 in LB broth. At that time, […] isopropyl-β-thiogalactopyranoside (IPTG) was added to the culture. Four hours following IPTG induction, the bacteria were pelleted at 3,000 RPM for 20 minutes, and resuspended in 5 mL lysis buffer (phosphate buffered saline [PBS] containing 100 μM GTP, 0.1% Triton X−100, leupeptin and aprotinin). The lysate was sonicated, then clarified by centrifugation at 10,000 RPM for 30 minutes. The resulting lysate was used as starting material for glutathione-conjugated agarose bead purification (Sigma) using standard techniques. […]
as §1, §2

prenylation of GST-Rap = test: as above; assay type: biochemical; details: 1-100 nM FTI concentration range
Source text: as §3, §4, §5, §1, §2

Raf-1 = target: T1, Raf-1 (Homo sapiens, UniProt P04049); test: In vivo Rig/Raf-1 co-immunoprecipitation in HEK-293T cells; assay type: binding; details: HEK-293T cells co-transfected with HA-Raf-1
T1 construct: HA-RAF-1 fusion protein expression vector was produced by generating a full-length BamHI-compatible PCR fragment from a Raf-1 template; expressed in transfected cells; host or cells: HEK-293T
Source text: In this Example, experiments to assess the ability of Rig and Raf-1 to interact in vivo are described. These experiments (results shown in FIG. 9) used a standard in vivo co-transfection/co-immunoprecipitation protocol, where cultured mammalian cells were cotransfected with FLAG-tagged and/or hemagglutinin (HA)-tagged mammalian expression vector constructs, followed by immunoprecipitation with an anti-Raf-1 antibody and Western immunoblotting using either anti-FLAG or anti-HA primary detection antibodies. The assay was conducted using HEK-293T cells, a transformed human embryonal kidney cell line.
Briefly, HA-RAF-1 fusion protein expression vector was produced by generating a full-length BamHI-compatible PCR fragment from a Raf-1 template (Fabian et al., Proc. Natl. Acad.Sci. USA 91:5982-5986 [1994]), then cloned into the BamHI site of pCGN, which also encodes the HA epitope (Fiordalisi et al, Methods Enzymol., 332:3-36 [2001]). The construct was confirmed by sequencing.
A pCDNA3.1 (FLAG) expression vector was produced by inserting the FLAG epitope in-frame upstream of the BamHI restriction site of the multiple cloning region of pCDNA3.1 (Invitrogen). […]
Following transfection, the cells were cultured in DMEM containing 1% FBS for 48 hours. […] Membranes were then incubated in enhanced chemiluminescent substrate (ECL; Amersham) and the signal was detected on X-ray film.

[2] = FTI 1-100 nM, [3H]-mevalonate, one hour at 30 °C

Molecule | farnesylation of GST-Rig at 100 nM FTI (prenylation of GST-Rig; 100 nM FTI concentration) | sensitivity of mevalonate prenylation (radiolabelling) of GST-Rig to FTI (prenylation of GST-Rig; [2]) | farnesylation of GST-Ras at 100 nM FTI ([1]; 100 nM FTI concentration) | sensitivity of mevalonate prenylation (radiolabelling) of GST-Ras to FTI [1, 2] | sensitivity of GST-Ras prenylation relative to GST-Rig ([1]; comparison of the two proteins, FTI 1-100 nM) | sensitivity of GST-Rap farnesylation by mevalonate to FTI (prenylation of GST-Rap) | co-precipitation with Raf-1 (anti-Raf-1 immunoprecipitation) (Raf-1)
COC(=O)[C@H](CCSC)NC(=O)c1ccc(NC[C@@H](N)CS)cc1-c1ccccc1 [FTI-277] | completely abolished | sensitive | completely abolished | sensitive | greater sensitivity | did not show sensitivity | –
B1 | – | – | – | – | – | – | coprecipitated
